pIC50: −log10 of the molar value.
Assays:
[1] = molecular target: Matrix metalloproteinase-14 (Homo sapiens, UniProt P50281); experiment: Inhibition of MMP14 (unknown origin) by FRET method
[2] = molecular target: 72 kDa type IV collagenase (Homo sapiens, UniProt P08253); experiment: Inhibition of MMP2 (unknown origin) by FRET method
[3] = molecular target: T1, A disintegrin and metalloproteinase with thrombospondin motifs 4 (Homo sapiens, UniProt O75173); experiment: Inhibition of ADAMTS-4 (unknown origin) by FRET method
T1 sequence (O75173 whole entry): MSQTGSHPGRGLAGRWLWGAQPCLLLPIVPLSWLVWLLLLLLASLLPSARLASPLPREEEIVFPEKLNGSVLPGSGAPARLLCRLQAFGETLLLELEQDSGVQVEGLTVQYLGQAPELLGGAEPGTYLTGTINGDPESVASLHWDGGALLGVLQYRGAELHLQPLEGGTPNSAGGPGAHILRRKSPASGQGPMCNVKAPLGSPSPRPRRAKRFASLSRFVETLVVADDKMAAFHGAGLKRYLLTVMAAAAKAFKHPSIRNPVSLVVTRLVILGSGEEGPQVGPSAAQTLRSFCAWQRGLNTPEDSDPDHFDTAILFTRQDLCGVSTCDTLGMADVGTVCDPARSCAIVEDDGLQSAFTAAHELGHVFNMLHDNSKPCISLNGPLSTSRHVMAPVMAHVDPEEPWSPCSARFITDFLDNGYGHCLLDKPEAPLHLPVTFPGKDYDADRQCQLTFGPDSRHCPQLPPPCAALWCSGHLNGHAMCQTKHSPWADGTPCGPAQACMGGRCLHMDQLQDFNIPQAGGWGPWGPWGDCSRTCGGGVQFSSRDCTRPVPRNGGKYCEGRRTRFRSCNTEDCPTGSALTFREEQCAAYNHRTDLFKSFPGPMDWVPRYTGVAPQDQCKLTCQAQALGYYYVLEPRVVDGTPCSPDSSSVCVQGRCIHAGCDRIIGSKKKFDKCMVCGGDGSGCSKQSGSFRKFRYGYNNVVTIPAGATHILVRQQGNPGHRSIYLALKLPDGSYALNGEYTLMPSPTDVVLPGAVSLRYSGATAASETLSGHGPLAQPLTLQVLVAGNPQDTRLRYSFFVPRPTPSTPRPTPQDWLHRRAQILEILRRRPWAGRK

[4] = molecular target: T2, A disintegrin and metalloproteinase with thrombospondin motifs 5 (Bos taurus, UniProt Q9TT92); experiment: Ex vivo inhibition of ADAMTS-5-mediated aggrecan degradation in IL-1-stimulated bovine cartilage explant
T2 sequence (Q9TT92 whole entry): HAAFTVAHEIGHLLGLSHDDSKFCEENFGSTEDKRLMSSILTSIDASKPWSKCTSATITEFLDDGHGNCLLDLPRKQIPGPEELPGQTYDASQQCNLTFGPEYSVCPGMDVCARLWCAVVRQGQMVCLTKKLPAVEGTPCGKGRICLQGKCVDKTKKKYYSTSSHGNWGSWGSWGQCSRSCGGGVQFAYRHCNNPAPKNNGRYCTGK

[5] = Apparent permeability from apical to basolateral side of MDCK cells by transwell assay; assay type: ADME, cell-based, Canis lupus familiaris; details: dog
[6] = Intrinsic clearance in […]; assay type: ADME

Chain of 72 kDa type IV collagenase (P08253 whole entry): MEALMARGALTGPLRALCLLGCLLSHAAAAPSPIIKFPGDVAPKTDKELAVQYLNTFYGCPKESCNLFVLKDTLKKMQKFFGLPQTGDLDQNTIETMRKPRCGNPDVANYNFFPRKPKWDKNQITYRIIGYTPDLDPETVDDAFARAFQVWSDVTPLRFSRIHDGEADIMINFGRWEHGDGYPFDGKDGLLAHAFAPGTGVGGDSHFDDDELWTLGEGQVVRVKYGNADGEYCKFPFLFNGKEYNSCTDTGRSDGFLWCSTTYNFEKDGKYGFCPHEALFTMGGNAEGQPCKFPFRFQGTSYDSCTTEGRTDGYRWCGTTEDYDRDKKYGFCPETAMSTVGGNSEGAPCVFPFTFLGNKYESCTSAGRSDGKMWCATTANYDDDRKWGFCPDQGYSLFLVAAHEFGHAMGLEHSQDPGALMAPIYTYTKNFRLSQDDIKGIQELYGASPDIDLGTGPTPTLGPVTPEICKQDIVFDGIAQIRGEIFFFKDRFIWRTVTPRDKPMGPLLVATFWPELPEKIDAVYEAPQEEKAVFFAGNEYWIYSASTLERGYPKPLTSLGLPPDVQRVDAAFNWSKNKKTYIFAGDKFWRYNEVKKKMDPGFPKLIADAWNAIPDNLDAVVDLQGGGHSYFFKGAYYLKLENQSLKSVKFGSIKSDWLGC

pIC50 [1]: 4.62 | pIC50 [2]: < 4.52 | pIC50 [3]: 4.64 | pIC50 [4]: 4.66 | Papp A→B [5]: 5.55 ×10⁻⁶ cm/s | CLint scaled [6]: 2.7 mL/min/kg
Structure (SMILES): O=C(O)CCc1sc(/C=C2\NC(=O)CS2)nc1-c1ccccn1

— ChEMBL document CHEMBL2346648, “A series of thiazole derivatives bearing thiazolidin-4-one as non-competitive ADAMTS-5 (aggrecanase-2) inhibitors” (Bioorg Med Chem Lett, 2013)
